In brackets after ≈: the same amount, converted by molar mass. Like-named read-outs stand apart in the source and are kept apart here.
Tests used:
[1] = system: human colon cancer cell line HCT-116; experiment: Cytotoxicity, MTS assay
[2] = system: Methicillin-resistant staphylococcus aureus (R3708); experiment: Antibacterial activity, broth dilution method (Mueller–Hinton broth), MIC
[3] = system: Escherichia coli (ATCC25922); experiment: as above
[4] = system: Staphylococcus aureus (ATCC29213); experiment: as above
[5] = system: Staphylococcus aureus (ATCC29213), Methicillin-resistant staphylococcus aureus (R3708) and Escherichia coli (ATCC25922); experiment: Antibacterial activity against three multidrug-resistant bacteria, broth dilution (summary statements)
[6] = system: human embryonic kidney (HEK) 293 cell line; experiment: Cytotoxicity, MTS assay
[7] = ATCC25922|ATCC29213, read-out: MIC values ranging over the three bacteria

Row | Compound | IC50 ([1]; Homo sapiens, HCT-116, 72 h) [µM] | MIC [2] [µM] | MIC [3] [µM] | MIC [4] [µM] | MIC [5] [µg/mL] | IC50 ([6]; Homo sapiens, HEK293, 72 h) [µM] | also measured
1 | O=c1[nH]cc(F)c(=O)[nH]1 [5-Fluorouracil, reference compound] | 2.04 ± 0.22 |  |  |  |  |  | 
2 | CC1(C)S[C@@H]2[C@H](NC(=O)[C@H](N)c3ccccc3)C(=O)N2[C@H]1C(=O)O [Ampicillin sodium, reference compound] |  | 129 | 6.73 | 8.07 |  |  | 
3 | COC1(CO)C(=O)n2c(cc3ccccc32)C(=O)N1C (stereo not drawn) [Compound 2, 1,2,3,4-tetrahydro-3-methoxyl-3-hydroxylmethyl-2-methyl-1,4-dioxopyrazino[1,2-a]indole] |  |  |  |  | > 256 |  | 
4 | CC1C(=O)n2c(cc3ccccc32)C(=O)N1C (stereo not drawn) [Compound 3, 1,2,3,4-tetrahydro-2,3-dimethyl-1,4-dioxopyrazino[1,2-a]indole] |  |  |  |  | > 256 |  | 
5 | C=c1c(=O)n2c(cc3ccccc32)c(=O)n1C [Compound 4, 1,2,3,4-tetrahydro-2-methyl-3-methylene-1,4-dioxopyrazino[1,2-a]indole] | 10.3 ± 1.41 | 70.7 (≈ 16 µg/mL) | > 1130 | 283 (≈ 64 µg/mL) |  | 30.1 ± 0.9 | 
6 | CN1C(=O)C(=O)n2c(cc3ccccc32)C1=O [Compound 5, 1,2,3,4-tetrahydro-2-methyl-1,3,4-trioxopyrazino[1,2-a]indole] | > 50 |  |  |  | > 256 | > 50 | 
7 | CNC(=O)c1cc2ccccc2[nH]1 [Compound 6, N-methyl-1H-indole-2-carboxamide] |  |  |  |  | > 256 |  | 
8 | CN1C(=O)[C@]23CC4=CC=C[C@H](O)[C@H]4N2C(=O)[C@@]1(CO)SS3 [Compound 7, gliotoxin] | 1.24 ± 0.38 | 1.53 (≈ 0.499 µg/mL) | 24.5 (≈ 8.01 µg/mL) | 12.2 (≈ 3.98 µg/mL) |  | 1.58 ± 0.03 | MIC [5, 7]: 1.52 to 97.6 µM
9 | CC(=O)OC1C=CC=C2CC34SSC(CO)(C(=O)N3C21)N(C)C4=O (stereo not drawn) [Compound 8, acetylgliotoxin] | 0.89 ± 0.04 | 21.7 (≈ 8.01 µg/mL) | > 696 | 86.9 (≈ 32 µg/mL) |  | 4.49 ± 0.24 | 
10 | CN1C(=O)C2(S)CC3=CC=CC(O)C3N2C(=O)C1(S)CO (stereo not drawn) [Compound 9, reduced gliotoxin] | 0.43 ± 0.04 | 1.52 (≈ 0.499 µg/mL) | 97.6 (≈ 32 µg/mL) | 48.8 (≈ 16 µg/mL) |  | 1.26 ± 0.04 | MIC [5, 7]: 1.52 to 97.6 µM
11 | CSC1(CO)C(=O)N2C3C(=CC=CC3OC(C)=O)CC2(SC)C(=O)N1C (stereo not drawn) [Compound 10, 6-acetylbis(methylthio)gliotoxin] | > 50 |  |  |  | > 256 | > 50 | 
12 | CSC1(CO)C(=O)N2c3ccccc3CC2(SC)C(=O)N1C (stereo not drawn) [Compound 12, didehydrobisdethiobis(methylthio)gliotoxin] | > 50 |  |  |  | > 256 | > 50 | 
13 | CSC1(CO)NC(=O)C(Cc2ccccc2)(SC)NC1=O (stereo not drawn) [Compound 13, bis-N-norgliovictin] | > 50 |  |  |  | > 256 | > 50 | 
14 | CN[C@H](CC(C)C)C(=O)N[C@H]1C(=O)N[C@@H](CC(N)=O)C(=O)N[C@H]2C(=O)N[C@H]3C(=O)N[C@H](C(=O)N[C@H](C(=O)O)c4cc(O)cc(O)c4-c4cc3ccc4O)[C@H](O)c3ccc(c(Cl)c3)Oc3cc2cc(c3O[C@@H]2O[C@H](CO)[C@@H](O)[C@H](O)[C@H]2O[C@H]2C[C@](C)(N)[C@H](O)[C@H](C)O2)Oc2ccc(cc2Cl)[C@H]1O [Vancomycin, reference compound] |  | 2.01 (≈ 2.91 µg/mL) |  | 0.84 (≈ 1.22 µg/mL) |  |  | 
15 | bisdethiobis(methylthio)gliotoxin [Compound 11] |  |  |  |  |  |  | IC50 ([1]; HCT-116 cells, 72 h, MTS, n = 5): 8.59 ± 0.96 µM; IC50 ([6]; 293 cells, 72 h, MTS, n = 5): 16.4 ± 0.38 µM

Reference: publication PMC4245550, “Exploring the Chemodiversity and Biological Activities of the Secondary Metabolites from the Marine Fungus Neosartorya pseudofischeri” (Marine Drugs, 2014)
